Measurements published in patent US20240148741A1, “FORMULATION FOR ORAL ADMINISTRATION, COMPRISING TRIAZINE DERIVATIVE” (priority 2021, published 2024).

Assay: Moisture sorption/desorption isotherm measurement (DVS)
Assay type: physicochemical
Details: for change in mass when the humidity was changed (DVS): 0% to 95% RH, 25° C.
Experimental: About 15 to 25 mg of a sample was weighed into a sample pan, and measurement was made. Measurement conditions are as follows. • Device: DVS Adventure manufactured by Surface Measurement Systems Ltd. • Measurement points: 0% to 95% RH every 5%, and 95% RH to 0% every 5% • Temperature: 25° C.
Regarding the comparison of the X-ray powder analysis patterns before and after the DVS measurement, measurement was performed by the following method.
• Measuring method: reflection method • Wavelength used: CuKα ray • Tube current: 200 mA • Tube voltage: 45 kV • Sampling plate: aluminum • X-ray incident angle: 2.5° • Sampling width: 0.02° • Detector: HyPix-3000 (two-dimensional detection mode)

Cn1cnc(Cn2c(=O)[nH]/c(=N\c3cc4cn(C)nc4cc3Cl)n(Cc3cc(F)c(F)cc3F)c2=O)n1
change in mass when the humidity was changed (DVS) (crystal of Example a (FIG. 6)): No substantial change in mass
change in mass when the humidity was changed (DVS) (crystal of Step 5-2 of Example 1b (FIG. 18)): No substantial change in mass
crystalline form before and after the DVS measurement (X-ray powder patterns) (crystal of Step 5-2 of Example 1b (FIG. 19)): did not change
